Measured values published in patent publication US9926302B2, “Heteroaryl substituted heterocyclyl sulfones” (priority 2014, dated 2018).

molecular target: T1, Human CaV2.2 channels (Homo sapiens, UniProt Q00975); assay: Fluorescence assay for CaV2.2 channels using potassium depolarization to induce channel opening (FLIPR, Fluo 4); type: cell-based; settings: 3 μM test compound; alternative assay buffer 30 mM KCl (inactivated channel state); HEK293 cells stably expressing human CaV2.2
T1 construct: expressed in transfected cells
How it was run: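 HEK293 cells stably co-expressing CaV2.2 with alpha2-delta and beta subunits plus Kir2.3, loaded with 2 μM Fluo 4 and pre-incubated 15 min at 25° C with compound in 1 mM or 30 mM KCl buffer (pH 7.4; latter promotes inactivated state). Depolarized by KCl addition; peak fluorescence amplitude normalized to baseline gives inhibition.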

T1 sequence (P54289 947-1103): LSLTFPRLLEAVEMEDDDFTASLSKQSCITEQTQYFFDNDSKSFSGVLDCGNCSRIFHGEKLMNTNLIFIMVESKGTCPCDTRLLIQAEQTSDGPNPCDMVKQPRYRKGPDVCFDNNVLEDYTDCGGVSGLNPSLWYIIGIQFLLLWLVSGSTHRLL
T1 sequence (P54289 25-946): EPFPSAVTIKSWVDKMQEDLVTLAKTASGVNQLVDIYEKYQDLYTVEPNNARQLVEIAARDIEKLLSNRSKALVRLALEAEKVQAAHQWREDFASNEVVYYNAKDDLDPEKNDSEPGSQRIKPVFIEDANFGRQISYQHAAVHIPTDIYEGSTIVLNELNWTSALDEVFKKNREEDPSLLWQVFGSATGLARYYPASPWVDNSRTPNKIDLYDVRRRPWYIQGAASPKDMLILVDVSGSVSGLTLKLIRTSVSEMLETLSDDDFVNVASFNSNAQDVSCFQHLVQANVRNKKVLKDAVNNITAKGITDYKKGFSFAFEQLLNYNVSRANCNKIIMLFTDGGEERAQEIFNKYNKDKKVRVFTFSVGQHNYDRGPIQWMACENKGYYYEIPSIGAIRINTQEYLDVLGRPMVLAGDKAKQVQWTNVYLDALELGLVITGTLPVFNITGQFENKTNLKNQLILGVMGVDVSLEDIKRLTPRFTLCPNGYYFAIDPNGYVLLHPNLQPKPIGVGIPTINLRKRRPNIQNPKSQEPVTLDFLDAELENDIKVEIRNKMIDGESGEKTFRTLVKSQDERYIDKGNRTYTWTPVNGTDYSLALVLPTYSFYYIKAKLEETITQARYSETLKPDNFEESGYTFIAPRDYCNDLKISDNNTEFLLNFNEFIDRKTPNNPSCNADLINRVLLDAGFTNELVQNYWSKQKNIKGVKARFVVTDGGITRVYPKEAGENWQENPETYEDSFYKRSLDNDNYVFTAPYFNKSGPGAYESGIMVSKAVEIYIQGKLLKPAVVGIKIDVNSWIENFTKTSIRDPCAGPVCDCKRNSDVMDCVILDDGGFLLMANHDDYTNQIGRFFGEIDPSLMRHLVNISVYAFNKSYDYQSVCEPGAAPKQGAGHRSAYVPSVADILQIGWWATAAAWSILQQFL
T1 sequence (P54284 whole entry, further chain): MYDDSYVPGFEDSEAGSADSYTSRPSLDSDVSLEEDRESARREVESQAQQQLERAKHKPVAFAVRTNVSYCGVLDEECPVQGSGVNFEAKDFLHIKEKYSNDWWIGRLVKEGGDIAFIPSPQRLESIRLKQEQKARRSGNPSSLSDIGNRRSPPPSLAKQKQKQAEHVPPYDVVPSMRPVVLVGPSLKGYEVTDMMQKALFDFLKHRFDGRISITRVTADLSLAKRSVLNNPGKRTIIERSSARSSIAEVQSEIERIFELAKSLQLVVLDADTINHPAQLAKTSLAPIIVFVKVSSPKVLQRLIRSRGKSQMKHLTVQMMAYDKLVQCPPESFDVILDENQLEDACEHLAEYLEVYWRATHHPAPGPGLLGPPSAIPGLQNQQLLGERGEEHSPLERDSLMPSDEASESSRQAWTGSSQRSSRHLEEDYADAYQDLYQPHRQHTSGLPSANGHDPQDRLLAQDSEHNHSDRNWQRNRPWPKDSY
T1 sequence (Q00975 whole entry): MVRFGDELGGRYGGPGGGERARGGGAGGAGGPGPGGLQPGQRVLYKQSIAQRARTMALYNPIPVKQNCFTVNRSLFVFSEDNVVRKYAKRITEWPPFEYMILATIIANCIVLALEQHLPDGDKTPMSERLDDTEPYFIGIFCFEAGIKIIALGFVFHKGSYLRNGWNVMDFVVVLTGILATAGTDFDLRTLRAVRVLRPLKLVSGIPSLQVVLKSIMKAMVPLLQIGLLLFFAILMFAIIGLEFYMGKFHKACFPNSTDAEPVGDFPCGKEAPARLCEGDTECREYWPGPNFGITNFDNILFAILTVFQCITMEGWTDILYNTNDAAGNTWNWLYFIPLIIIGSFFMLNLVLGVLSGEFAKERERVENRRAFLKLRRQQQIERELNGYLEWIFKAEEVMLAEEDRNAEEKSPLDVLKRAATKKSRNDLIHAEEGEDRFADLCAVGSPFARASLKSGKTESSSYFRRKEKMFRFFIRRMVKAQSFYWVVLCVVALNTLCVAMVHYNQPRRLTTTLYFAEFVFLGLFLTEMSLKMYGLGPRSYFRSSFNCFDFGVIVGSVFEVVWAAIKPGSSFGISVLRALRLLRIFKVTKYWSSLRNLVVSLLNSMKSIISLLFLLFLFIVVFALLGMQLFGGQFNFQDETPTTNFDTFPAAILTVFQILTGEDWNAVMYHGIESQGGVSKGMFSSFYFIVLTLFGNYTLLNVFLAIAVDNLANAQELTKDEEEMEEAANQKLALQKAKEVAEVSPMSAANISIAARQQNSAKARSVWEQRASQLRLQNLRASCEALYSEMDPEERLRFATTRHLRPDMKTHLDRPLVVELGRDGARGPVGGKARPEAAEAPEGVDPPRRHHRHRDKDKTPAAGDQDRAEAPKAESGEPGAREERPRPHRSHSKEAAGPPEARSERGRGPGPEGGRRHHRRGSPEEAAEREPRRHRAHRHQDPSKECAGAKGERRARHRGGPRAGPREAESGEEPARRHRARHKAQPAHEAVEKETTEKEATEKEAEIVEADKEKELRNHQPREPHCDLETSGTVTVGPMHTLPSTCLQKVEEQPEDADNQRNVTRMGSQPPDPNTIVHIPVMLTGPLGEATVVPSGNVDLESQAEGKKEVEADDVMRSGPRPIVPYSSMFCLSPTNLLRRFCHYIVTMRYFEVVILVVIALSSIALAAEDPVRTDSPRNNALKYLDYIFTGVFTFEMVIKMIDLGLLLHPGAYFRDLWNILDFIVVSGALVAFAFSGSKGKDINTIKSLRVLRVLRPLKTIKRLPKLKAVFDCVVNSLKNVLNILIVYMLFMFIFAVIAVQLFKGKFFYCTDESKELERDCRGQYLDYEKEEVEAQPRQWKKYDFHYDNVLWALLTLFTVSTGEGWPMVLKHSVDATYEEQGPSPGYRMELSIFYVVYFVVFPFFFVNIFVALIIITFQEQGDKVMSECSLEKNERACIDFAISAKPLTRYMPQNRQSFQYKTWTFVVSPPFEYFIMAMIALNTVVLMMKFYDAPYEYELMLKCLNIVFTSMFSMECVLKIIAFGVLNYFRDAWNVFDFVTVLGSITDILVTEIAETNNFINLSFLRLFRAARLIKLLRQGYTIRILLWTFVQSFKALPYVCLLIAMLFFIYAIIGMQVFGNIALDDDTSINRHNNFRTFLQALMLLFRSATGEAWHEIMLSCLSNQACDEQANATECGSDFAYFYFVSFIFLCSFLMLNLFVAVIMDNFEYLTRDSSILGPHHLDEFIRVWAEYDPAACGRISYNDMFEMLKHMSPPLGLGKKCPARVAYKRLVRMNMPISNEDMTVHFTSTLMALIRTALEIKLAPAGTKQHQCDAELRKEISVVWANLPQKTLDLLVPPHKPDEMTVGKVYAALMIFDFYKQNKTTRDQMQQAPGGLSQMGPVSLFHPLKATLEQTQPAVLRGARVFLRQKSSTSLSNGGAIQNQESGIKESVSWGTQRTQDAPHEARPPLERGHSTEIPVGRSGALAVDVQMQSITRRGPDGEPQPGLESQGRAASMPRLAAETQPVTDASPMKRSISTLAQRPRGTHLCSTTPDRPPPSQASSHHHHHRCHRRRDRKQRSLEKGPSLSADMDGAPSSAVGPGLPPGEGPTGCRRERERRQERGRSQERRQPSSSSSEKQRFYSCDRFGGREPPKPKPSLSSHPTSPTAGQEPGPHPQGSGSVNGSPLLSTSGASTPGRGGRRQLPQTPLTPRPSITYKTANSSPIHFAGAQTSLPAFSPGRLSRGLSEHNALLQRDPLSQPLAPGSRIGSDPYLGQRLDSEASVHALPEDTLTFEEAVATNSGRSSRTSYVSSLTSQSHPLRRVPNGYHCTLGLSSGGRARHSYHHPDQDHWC

**Q.** For `CC1(S(=O)(=O)c2cccc(OC(F)F)c2)CCOC(c2ncc(S(C)(=O)=O)cc2Cl)C1` (stereo not shown) [SC-436, 3-Chloro-2-[4-[[3-(difluoro-methoxy)-phenyl]sulfonyl]-4-methyl-tetrahydro-pyran-2-yl]-5-methylsulfonyl-pyridine], which “Activity Category: %-Inhib (CaV2.2) @3 μM @30 mM KCl” value (shortened to “Activity Category: %-Inhib”) is on record?
**A.** The value was “C (%-Inhibition >40% up to ≤75%)”.

**Q.** How did the “Activity Category: %-Inhib” value turn out when `C[S+]([O-])c1cc(C(F)(F)F)cnc1C1CC(C)(S(=O)(=O)c2cccc(C(F)(F)F)c2)CCO1` (stereo not shown) [SC-231, 3-(Methylsulfinyl)-2-[4-methyl-4-[[3-(trifluoromethyl)phenyl]sulfonyl]-tetrahydro-pyran-2-yl]-5-(trifluoromethyl)-pyridine] was run?
**A.** The value was “B (%-Inhibition >75% up to ≤95%)”.

**Q.** With `CC1(S(=O)(=O)c2cccc(OC(F)(F)F)c2)CCOC(c2ncc(C(F)(F)F)cc2S(C)(=O)=O)C1` (stereo not shown) [SC-221, 3-Methylsulfonyl-2-[4-methyl-4-[[3-(trifluoromethyloxy)-phenyl]sulfonyl]-tetrahydro-pyran-2-yl]-5-(trifluoromethyl)-pyridine] as the compound, how does the “Activity Category: %-Inhib” value read?
**A.** The value was “B (%-Inhibition >75% up to ≤95%)”.

**Q.** How did the “Activity Category: %-Inhib” value turn out when `Cc1cc(S(C)(=O)=O)cnc1C1CC(C)(S(=O)(=O)c2cc(F)cc(C(F)(F)F)c2)CCO1` (stereo not shown) [SC-445, 2-[4-[[3-Fluoro-5-(trifluoromethyl)-phenyl]sulfonyl]-4-methyl-tetrahydro-pyran-2-yl]-3-methyl-5-methylsulfonyl-pyridine] was run?
**A.** Its value is “C (%-Inhibition >40% up to ≤75%)”.

**Q.** Which “Activity Category: %-Inhib” value does the source give for `CC1(S(=O)(=O)c2cccc(C(F)(F)F)c2)CCOC(c2ccc(C3CC3)nc2)C1` (stereo not shown) [SC-348, 2-Cyclopropyl-5-[4-methyl-4-[[3-(trifluoromethyl)phenyl]sulfonyl]-tetrahydro-pyran-2-yl]-pyridine] here?
**A.** The value was “A (%-Inhibition >95%)”.

**Q.** `Cn1nc(C2CC2)cc1C1CC(C)(S(=O)(=O)c2cccc(C(F)(F)F)c2)CCO1` (stereo not shown) [SC-432, 3-Cyclopropyl-1-methyl-5-[4-methyl-4-[[3-(trifluoromethyl)phenyl]sulfonyl]-tetrahydro-pyran-2-yl]-1H-pyrazole] was tested. Which “Activity Category: %-Inhib” value did it give?
**A.** Its value is “A (%-Inhibition >95%)”.

same assay, conditions: HEK293, 3 μM test compound; alternative assay buffer 30 mM KCl (inactivated channel state); HEK293 cells stably expressing human CaV2.2; read-out: Activity Category: %-Inhib (CaV2.2) @3 μM @30 mM KCl

**Q.** For `CC1(S(=O)(=O)c2cccc(C(F)(F)F)c2)CCOC(c2ncc(C(F)(F)F)cc2S(C)(=O)=O)C1` (stereo not shown) [SC-355, 3-Methylsulfonyl-2-[4-methyl-4-[[3-(trifluoromethyl)phenyl]sulfonyl]-tetrahydro-pyran-2-yl]-5-(trifluoromethyl)-pyridine], which inhibition at 3 µM is on record?
**A.** The inhibition at 3 µM was 75 to 95%.

**Q.** Which inhibition at 3 µM does the source give for `COc1ncc(C2CC(C)(S(=O)(=O)c3cccc(C(F)(F)F)c3)CCO2)cc1F` (stereo not shown) [SC-255, 3-Fluoro-2-methoxy-5-[4-methyl-4-[[3-(trifluoromethyl)phenyl]sulfonyl]-tetrahydro-pyran-2-yl]-pyridine] here?
**A.** Its inhibition at 3 µM is greater than 95%.

**Q.** `CC1(S(=O)(=O)c2cccc(C(F)(F)F)c2)CCOC(c2ncc(S(C)(=O)=O)cc2Cl)C1` (single isomer, unassigned) [SC-130, 3-Chloro-5-methylsulfonyl-2-[4-methyl-4-[[3-(trifluoromethyl)phenyl]sulfonyl]-tetrahydro-pyran-2-yl]-pyridine] was tested. Which inhibition at 3 µM did it give?
**A.** The inhibition at 3 µM was 75 to 95%.

**Q.** With `Cc1cc(S(C)(=O)=O)cnc1C1CC(C)(S(=O)(=O)c2cc(F)cc(C(F)F)c2)CCO1` (stereo not shown) [SC-442, 2-[4-[[3-(Difluoro-methyl)-5-fluoro-phenyl]sulfonyl]-4-methyl-tetrahydro-pyran-2-yl]-3-methyl-5-methylsulfonyl-pyridine] as the compound, how does the inhibition at 3 µM read?
**A.** Its inhibition at 3 µM is 40 to 75%.

**Q.** How did the inhibition at 3 µM turn out when `CCC1(S(=O)(=O)c2cccc(C(F)(F)F)c2)CCOC(c2ccc(C(F)(F)F)cn2)C1` (stereo not shown) [SC-106, 2-[4-Ethyl-4-[[3-(trifluoromethyl)phenyl]sulfonyl]-tetrahydro-pyran-2-yl]-5-(trifluoromethyl)-pyridine] was run?
**A.** Its inhibition at 3 µM is greater than 95%.

**Q.** With `CC1(S(=O)(=O)c2cccc(C(F)(F)F)c2)CCOC(c2ccc(OC(F)F)nc2)C1` (stereo not shown) [SC-418, 2-(Difluoro-methoxy)-5-[4-methyl-4-[[3-(trifluoromethyl)phenyl]sulfonyl]-tetrahydro-pyran-2-yl]-pyridine] as the compound, how does the inhibition at 3 µM read?
**A.** Its inhibition at 3 µM is greater than 95%.

**Q.** `Cc1cccc(C2CC(S(=O)(=O)c3cccc(C(F)(F)F)c3)CCO2)n1` (racemic) [SC-341, 2-methyl-6-[4-[[3-(trifluoromethyl)phenyl]sulfonyl]-tetrahydro-pyran-2-yl]-pyridine] was tested. Which inhibition at 3 µM did it give?
**A.** The inhibition at 3 µM was 40 to 75%.
